Earlier results as cited in patent US6448244B1, “Water soluble azoles as broad-spectrum antifungals” (Janssen Pharmaceutica N.V., priority 1998, dated 2002).

Conditions: Saksena et al., Bioorg. Med. Chem. Lett. (1995), 5(2), 127-132

For `CN(C)CCn1ncn(-c2ccc(N3CCN(c4ccc(OC[C@@H]5CO[C@@](Cn6cncn6)(c6ccc(F)cc6F)C5)cc4)CC3)cc2)c1=O` (relative stereo) [(3R-cis)-4-[4-[4-[4-[[5-(2,4-difluorophenyl)tetrahydro-5-(1H-1,2,4-triazol-1-ylmethyl)-3-furanyl]methoxy]phenyl]-1-piperazinyl]phenyl]-2-[2-(dimethylamino)ethyl]-2,4-dihydro-3H-1,2,4-triazol-3-one], the “antifungal activity compared to SCH 51048” value is given as “profoundly less active”.
